Results as given in patent publication US20170314033A1, “HERBICIDE-RESISTANT TARAXACUM KOK-SAGHYZ AND TARAXACUM BREVICORNICULATUM” (Ohio State Innovation Foundation, priority 2016, published 2017).

Legend:
[1] = test system: wild-type plants (dandelions); assay: glufosinate exposure of wild-type dandelions; type: in vivo; conditions: FIG. 11
Text: FIG. 11: Comparison of wild-type dandelions and exemplary herbicide-resistant rubber-producing dandelions after exposure to herbicide.

[2] = test system: transgenic herbicide-resistant rubber-producing dandelions expressing the bar gene; assay: glufosinate treatment of mature transgenic (bar gene) plants; type: in vivo, Taraxacum kok-saghyz and Taracum brevicorniculatum; conditions: for survival rate: formulated under the brand BASTA, mature transgenic plants
Text: Applicants show the successful generation of rubber-producing dandelions species, which display resistance to broad leaf herbicide glufosinate. Using similar methods as described in Example 1, transgenic plants were generated using Agrobacterium tumafaciens-mediated transformation of leaf discs or root fragments, followed by regeneration of transgenic plants, which were then acclimated and transferred to pots within greenhouses. The bar gene, was expressed singly or in combination with other genes of interest in two rubber-producing dandelion species, Taraxacum kok-saghyz and Taracum brevicorniculatum. Table 1 describes the list of gene constructs used for the generation of transgenic herbicide-resistant dandelions.
Confirmation of a transgenic event was validated by PCR and resistance confirmed through treatment of mature transgenic plants with varying doses of glufosinate (e.g., 25 mg/L, 50 mg/L, 100 mg/L, 200 mg/L, etc.) formulated under the brand BASTA®. Treatment of plants with glufosinate at 25 mg/L yielded a 100% survival rate, 50 mg/L yielded a 50% survival rate, 150 mg/L yielded a 100% survival rate, and 200 mg/L yielded a 50% survival rate.

[3] = test system: non-transgenic TB; assay: kanamycin selection, elimination of non-transgenic TB; type: in vivo, T. brevicorniculatum; conditions: ½ MS medium, data not shown
Description: (§1) Roots then were blotted dry on filter paper and transferred to co-culture medium (solid 1⁄2 MS medium with 200 μm acetosyringone). After 3 days of co-culture with agrobacteria, root fragments were washed sequentially with water and liquid 1⁄2 MS medium with 400 mg L^-1 Timentin, and then transferred to solid 1⁄2 MS medium with 400 mg L^-1 Timentin. […] After 3 weeks further selection, transgene events were validated in selected plants. Root fragments of TK and TB were also inoculated with A. rhizogenes […] wild type using the same method. After recovery, root fragments were transferred to 1⁄2 MS medium with 400 mg L^-1 Timentin for regeneration. Approximately 30 root fragments were used for each replicate and three replicates were used for each treatment. […] Transgene presence was validated by PCR analysis (FIGS. 5A and B) and transgene expression at the transcription level was confirmed by RT-PCR (FIGS. 6A and B) using leaf tissue.

[4] = test system: non-transgenic TK; assay: kanamycin selection, elimination of non-transgenic TK; type: in vivo, Taraxacum kok-saghyz; conditions: ½ MS medium, data not shown
Description: as §1

Structure (SMILES) | injury when exposed to glufosinate [1] | herbicide tolerance after exposure to glufosinate ([2]; exemplary dandelions of the invention, FIG. 11) | injury as a result of exposure to glufosinate ([2]; exemplary plant of the invention, FIGS. 9-10) | survival rate ([2]; glufosinate at 25 mg/L) | survival rate ([2]; glufosinate at 50 mg/L) | survival rate ([2]; glufosinate at 150 mg/L) | survival rate ([2]; glufosinate at 200 mg/L) | kanamycin concentration effective at eliminating non-transgenic plants [3] | kanamycin concentration effective at eliminating non-transgenic plants [4]
CP(=O)(O)CCC(N)C(=O)O (stereo not drawn) [glufosinate] | significant injury and/or death | varying degrees herbicide tolerance | little to no injury | 100% | 50% | 100% | 50% | – | –
NC[C@H]1O[C@H](O[C@H]2[C@H](O)[C@@H](O[C@H]3O[C@H](CO)[C@@H](O)[C@H](N)[C@H]3O)[C@H](N)C[C@@H]2N)[C@H](O)[C@@H](O)[C@@H]1O [kanamycin] | – | – | – | – | – | – | – | 20 mg/L | 10 mg/L
